Measurements published in paper PMC8746705, “Comparison of Experimental Strategies to Study L-Type Amino Acid Transporter 1 (LAT1) Utilization by Ligands” (Molecules, 2021).

Assay: Liver lysosomal accumulation after i.p. dose to mice
Format: in vivo
Conditions: mouse liver; parent drug of the named prodrug
Protocol: Adult male mice weighing 25 ± 5 g were supplied by Envigo (Venray, Netherlands). Mice were housed in stainless steel cages on a 12 h light (07:00–19:00) and 12 h dark (19:00–07:00) cycle at an ambient temperature of 22 ± 1 °C with a relative humidity of 50–60%. All experiments were carried out during the light phase. Tap water and food pellets (Lactamin R36; Lactamin AB, Södertälje, Sweden) were available ad libitum. A dose of 25 µmol/kg of compound 1, 2, or 8–11 was given as a bolus injection (i.p.) to mice. The mice were decapitated at selected time points between (10–360 min) and brain tissues were collected for sample preparation to be analyzed by liquid chromatography-mass spectrometric (LC-MS/MS) analysis.
The liver lysosomal samples (10–120 min; tmax) were prepared by homogenizing the pre-weigh tissues with ice-cold 0.25 M sucrose (1:3). […] Samples were vortexed and centrifuged at 10,000× g at 4 °C for 10 min and injected to LC-MS/MS to quantify the total drug amount in tissue as a control to lysosomal samples. […] The concentration of compounds in the crude lysosomal fractions were then analyzed with LC-MS/MS. Both the total liver tissue accumulation as well as the lysosomal fraction (including the possibly released parent drugs) were calculated from the standard curve that was prepared by spiking known amounts of compounds to ACN, including the selected internal standard. […]

With `C[C@H](C(=O)Nc1cccc(C[C@H](N)C(=O)O)c1)c1cccc(C(=O)c2ccccc2)c1` [Compound 2] the “Accumulation of parent drug (dosed as such) into crude lysosomal fraction, of total liver tissue accumulation” value was “no parent drug was detected”.
